The target in this test is T1, alpha-amylase (Homo sapiens, UniProt P04746).
T1 sequence (P04746 16-511): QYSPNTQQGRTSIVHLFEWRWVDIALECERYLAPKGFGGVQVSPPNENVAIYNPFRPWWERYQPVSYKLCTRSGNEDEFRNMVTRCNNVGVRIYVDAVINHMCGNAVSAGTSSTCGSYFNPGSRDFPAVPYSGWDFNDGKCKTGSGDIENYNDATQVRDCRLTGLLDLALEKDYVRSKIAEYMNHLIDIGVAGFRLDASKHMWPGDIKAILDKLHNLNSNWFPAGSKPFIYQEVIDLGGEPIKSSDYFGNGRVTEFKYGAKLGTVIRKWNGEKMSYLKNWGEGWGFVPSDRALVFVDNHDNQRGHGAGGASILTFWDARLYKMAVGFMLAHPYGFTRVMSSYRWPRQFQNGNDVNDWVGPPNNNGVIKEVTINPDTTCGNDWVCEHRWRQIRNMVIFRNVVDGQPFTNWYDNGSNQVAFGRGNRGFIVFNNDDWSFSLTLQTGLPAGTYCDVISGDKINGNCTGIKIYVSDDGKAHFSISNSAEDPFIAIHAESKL
The test can be described thus: In vitro alpha-amylase inhibition assay (EnzChek Ultra-Amylase-Assay Kit).

As usually defined, the IC50 is the concentration that gives 50% inhibition. Read a low IC50 as inhibition by little substance. In turn, `CC(C)=CCc1c(O)cc2oc3c(O)c(O)c(O)c(CC=C(C)C)c3c(=O)c2c1O` [Compound 40, Garcixanthone D] yielded an IC50 of 11.1 µM.
The result for `CC(C)=CCc1c(O)c(C(=O)CC(C)(C)O)c2oc3c(O)ccc(O)c3c(=O)c2c1O` [Compound 39, Garcixanthone C] reads 17.1 µM.
Compound `CC(C)=CCc1c(O)cc2oc3c(CC=C(C)C)c(O)c4c(c3c(=O)c2c1O)C=CC(C)(C)O4` [Compound 23, Tovophyllin A] yielded an IC50 of 20.4 µM.
The result for `CC(C)=CCc1c(O)cc2oc3c(/C=C\C(C)(C)O)c(O)c(O)c(CC=C(C)C)c3c(=O)c2c1O` [Compound 30, Mangostanaxanthone VI] reads 21.9 µM; that for `CC(C)=CCc1c(O)c(O)c(/C=C\C(C)(C)O)c2c(=O)c3c(O)c(/C=C\C(C)(C)O)c(O)cc3oc12` [Compound 29, Mangostanaxanthone V], 11.9 µM.
The result for `O=C1c2c(O)cc(O)c([C@@H]3O[C@H](CO)[C@@H](O)[C@H](O)[C@H]3O)c2O[C@H](c2ccc(O)cc2)[C@H]1O` [Compound 5, Aromadendrin-8-C-glucoside] reads 8.3 µM; that for `O=C(c1ccc(O)c(O)c1)c1c(O)cc(O)cc1O[C@@H]1O[C@H](CO)[C@@H](O)[C@H](O)[C@H]1O` [Compound 4, Rhodanthenone], 10.4 µM.
The result for `COc1c(O)cc2oc3c(CC=C(C)CCC=C(C)C)c(O)cc(O)c3c(=O)c2c1CC=C(C)CCC=C(C)C` [Compound 10, Mangostanaxanthone I] reads 28.3 µM.
`O=C(c1cccc(O)c1)c1c(O)cc(O)cc1O[C@@H]1O[C@H](CO)[C@@H](O)[C@H](O)[C@H]1O` [Compound 3, 2,4,3’-Trihydroxy benzophenone-6-O-β-D-glucopyranoside]: the IC50 turned out to be 15.8 µM. This IC50 is about 1.8-fold lower than that of the compound before.
To `CC(C)=CCc1c(O)c(CC=C(C)C)c2oc3c(O)ccc(O)c3c(=O)c2c1O` [Compound 17, Gartanin] belongs 21.2 µM; to `COc1c(O)cc2oc3cc(O)c(CC=C(C)C)c(O)c3c(=O)c2c1CC=C(C)C` [Compound 13, α-Mangostin], 44.1 µM.
On to `COc1ccc(C2Oc3c(c(O)cc(O)c3C3OC(CO)C(O)C(O)C3O)C(=O)C2O)cc1` [Compound 9, 2R,3R-5,7-Dihydroxy-8-C-β-D-glucopyranosyl-4-methoxy-2,3-dihydroflavon-3-ol], for which half-maximal inhibition (IC50) required 12.8 µM.
To `COc1c(O)cc2oc3cc(O)c(/C=C\C(C)(C)O)c(O)c3c(=O)c2c1CC=C(C)C` [Compound 28, Mangostanaxanthone IV] belongs 46.5 µM; to `CC(C)=CCc1c(O)cc2oc3cc(O)c(O)c(/C=C\C(C)(C)O)c3c(=O)c2c1O` [Compound 31, Mangostanaxanthone VII], 19.5 µM.
The result for `O=C(c1cc(O)c(O)cc1O)c1c(O)cc(O)cc1OC1OC(CO)C(O)C(O)C1O` [Compound 8, 6-O-β-D-Glucopyranosyl-2,4,6,3′,4′,6′-hexahydroxybenzophenone] reads 7.1 µM; that for `CC(C)=CCc1c(O)cc2oc3c(CC=C(C)C)c(O)c(O)c(CC=C(C)C)c3c(=O)c2c1O` [Compound 15, Garcinone E], 18.8 µM.
To `Oc1cc(O)c2c(c1)O[C@H](c1ccc(O)c(O)c1)[C@H](O)C2` [Compound 6, Epicatechin] belongs 8.9 µM; to `COc1cc2oc3cc(O)c(OC)c(CC=C(C)C)c3c(=O)c2c(O)c1/C=C\C(C)(C)O` [Compound 35, Mangostanaxanthone VIII], 40.6 µM.
